From article PMC10644391, “Targeted Reversible Covalent Modification of a Noncatalytic Lysine of the Krev Interaction Trapped 1 Protein Enables Site-Directed Screening for Protein–Protein Interaction Inhibitors” (ACS Pharmacology & Translational Science, 2023)
“And” between values parts separate entries of the source, which are not always exact repeats. Equal values may be shown once.

Tested on: not listed separately
Assay: HEK293 cytotoxicity, resazurin cell viability assay
Format: cell-based
Settings: human, HEK293 cells, means ± SD, n = 3
Procedure: Maintenance of HEK293 Cells. HEK293 cell lines (American Type Culture Collection (ATCC)) were cultured in Dulbecco's Modified Eagle Medium (DMEM, Invitrogen) supplemented with 10% heat-inactivated fetal bovine serum (FBS, Gibco) and penicillin-streptomycin (1%). Cells were kept at 37 °C and 5% CO2, and were passaged every 72 hours.
Resazurin Cell Viability Assay. The cytotoxicity in HEK293 cells were determined using a resazurin cell viability assay. Test compounds in DMSO were diluted to 100x desired final assay concentration (maximum concentration of 100 µM) in eight-point dose response. 1 µL of test compounds were plated in a 96-well clear bottom tissue culture microplate. 49 µL of cell culture media was added to each well. Cells were diluted to 4 x 10^5 cells/mL, and 50 µL of this cell suspension was seeded to each well for a total of 2 x 10^4 cells/well. The assay plate was kept at 37 °C and 5% CO 2 for either 4 or 48 hours. At the end of the incubation time, 20 µL of 0.5 mM resazurin sodium salt (Alfa Aesar) solution in PBS was added to each well. The assay plates were incubated further at 37 °C for 2 hours. Fluorescence was measured at 531 nm and 595 nm excitation and emission wavelengths, respectively, using a 2104 EnVision® multilabel plate reader. CC50 values were obtained using sigmoidal curved generated with Prism GraphPad (San Diego, CA). SD values are reported as the standard deviation of the CC50 values of 3 biological replicates. All

SMILES	CC50 at 48 h
O=Cc1c(O)ccc2cc(Cl)ccc12 [Compound 8]	~100 µM
CN(C)c1ccc2c(C=O)c(O)ccc2c1 [Compound 11]	> 100 µM
CC#Cc1ccc2c(C=O)c(O)ccc2c1 [Compound 12]	~100 µM
O=Cc1c(O)ccc2cc(-c3c[nH]nn3)ccc12 [Compound 14]	> 100 µM
O=Cc1c(O)ccc2cc(-c3ccccc3)ccc12 [Compound 13]	43.5 ± 9.4 µM
COc1ccc2c(C=O)c(O)ccc2c1 [Compound 2, 2-hydroxy-6-methoxy-1-naphthaldehyde]	> 100 µM
C=CCc1ccc2c(C=O)c(O)ccc2c1 [Compound 7]	33.9 ± 5.4 µM

Tested on: KLF4
Assay: not given
Set-up: method as in PMID 33977234
Settings: HUVECs, 24 h of incubation; cited from earlier work

SMILES	KLF4 expression
COc1ccc2c(C=O)c(O)ccc2c1 [Compound 2, 2-hydroxy-6-methoxy-1-naphthaldehyde]	upregulation

Tested on: HEG1-KRIT1 PPI
Assay: not given
Settings: prior SAR studies; read-out: HEG1-KRIT1 PPI inhibition IC50; cited from earlier work

SMILES	IC50
O=Cc1ccccc1O [salicylaldehyde, reference compound]	> 500 µM

Tested on: KLF2
Assay: KLF2 gene expression in HUVECs (RT-qPCR)
Format: cell-based, Human
Settings: HUVEC, 4-h incubation, relative to inactive control (2-hydroxy-1-naphthoic acid), 10-50 µM
Procedure: (§1) Finally, to confirm target engagement in cell-based conditions, selected HNA derivatives (i.e., 2, 3, and 5) were tested in a functional assay that specifically looks at the downstream effects of inhibiting the interaction between HEG1 and KRIT1, using qPCR. […] Here, the ability of compound 2 and HNA derivatives 3 and 5 to upregulate the same transcription factors in HUVEC after 4 h was measured.
(§2) PCR experiments in endothelial cells
(§3) Cell Culture. Human umbilical vein endothelial cells (HUVECs, Lonza) from passages 5 to 7 were grown on fibronectin‐coated 6-well plates (Corning) in complete EGM‐2 media (Lonza). HNA compounds 2, 3 and 5 were used from stocks of 10 mM in DMSO, which were placed on a rotating block at room temperature for 30 min before being diluted for use in cell culture. Compounds were used at the concentrations indicated (10-50µM) in HUVEC medium and added to cell culture wells for 4 hours. Control cells were treated with the same concentration of either DMSO (vehicle) or the non-active compound V for the same duration. Cells were maintained in a humidified incubator at 37°C and 5% CO2.
(§4) RT-qPCR. HUVECs (Lonza) using TRIzol reagent (Thermo Fisher Scientific) and the Quick-RNA MiniPrep Kit (Zymo Research) according to the manufacturer’s instructions. cDNA was transcribed from a total of 1 µg RNA per sample using qScript™ cDNA SuperMix (QuantaBio) according to the manufacturer’s protocol. KAPA SYBR FAST qPCR master mix (Roche) was used on a CFX Connect Real-Time PCR Detection System (BioRad) to determine the relative levels of human gene trascripts. The following primer sets were used: KLF2 (forward) AGACCACGATCCTCCTTGA and (reverse) […]
(§5) […]; KLF4, (forward) […] and (reverse)
(§6) ; and GAPDH (forward) […] and
(§7) (reverse) […] used as internal control. The 2−ΔΔCT method was used to analyze relative changes between vehicle control and test compounds for each data set.

SMILES	KLF2 mRNA expression
COc1ccc2c(C=O)c(O)ccc2c1 [Compound 2, 2-hydroxy-6-methoxy-1-naphthaldehyde]	increased KLF2 and KLF4 expression without reaching statistical significance

Molecular target: T1, HEG1-KRIT1 PPI (Homo sapiens, UniProt O00522)
T1 construct: a recombinant FERM domain (residues 417–736) of KRIT1; made in house; host or cells: E. coli
T1 sequence (O00522 417-736): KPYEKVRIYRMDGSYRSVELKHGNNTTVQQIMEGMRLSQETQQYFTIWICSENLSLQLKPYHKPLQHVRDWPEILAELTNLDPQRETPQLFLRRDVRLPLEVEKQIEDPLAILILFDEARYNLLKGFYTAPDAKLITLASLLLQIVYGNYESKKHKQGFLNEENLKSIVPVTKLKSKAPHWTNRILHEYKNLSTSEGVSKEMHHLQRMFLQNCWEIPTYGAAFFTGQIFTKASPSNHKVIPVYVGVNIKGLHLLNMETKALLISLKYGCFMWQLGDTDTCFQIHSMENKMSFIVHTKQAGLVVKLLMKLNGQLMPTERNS
Assay: HEG1-KRIT1 PPI fluorescence polarization (FP) time-resolved assay
Format: biochemical
Settings: fluorescence polarization assay after 4 h of incubation; means ± SD, n = 3
Procedure: To evaluate the binding kinetics of HNA inhibitors, a fluorescence polarization (FP) time-resolved assay that uses a recombinant FERM domain (residues 417–736) of KRIT1 and a fluorescence-tagged HEG1 cytoplasmic tail (Cy5-HEG1 7-mer peptide) was developed (Supporting Information). Using HNA as a test compound, the FP data, expressed as millipolarization (mP) units, were obtained every 10 min over the course of 4–7 h. […] Thus, for practical purposes, a 4-h incubation time was established as the standard assay time for non-kinetic IC50 evaluations.
Fluorescence Polarization Assay and Optimization
The KRIT1 FERM domain (residues 417-736) was cloned into plasmid and recombinantly expressed in E. coli as previously described,1 while the Cy5-HEG1 7- mer peptide bearing the Cy5 dye as fluorescent probe was prepared by and purchased from GenScript (New Jersey, US). HEPES- buffered saline (HBS) buffer was supplemented (0.01%) with detergent Triton X -100 to minimize protein adsorption to the microplate. The assay was setup in a 96-well plate plated with 80 nM KRIT1, 4 nM Cy5- HEG1 probe, and either non-tagged HEG1 peptide or HNA as inhibitor (in 5% DMSO). To account for background fluorescence that could interfere with the assay, background wells with only test compound and Cy5 -HEG1 probe (no KRIT1) were also plated. The FP data, expressed as millipolarization (mP) units, were obtained […]
course of 4-7 hours (for kinetic characterization) using a Tecan Spark® Multimode Microplate Reader. The background mP (no KRIT1) was subtracted from mP to account for background fluorescence. All assays were done in triplicates.
Several FP assay conditions were optimized. First, the HEG1 probe engagement of KRIT1 was examined and its interaction was determined to be rapid equilibrium, thus any observed time dependance in response when an inhibitor displaces the probe is the result of inhibitor exchange kinetics and not that of the probe. Next, the affinity of KRIT1 for the probe (Kd) was examined by following the change in polarization signal as a function of a matrix of five probe concentrations and four KRIT1 concentrations (Figure S1B ). A global fit of equation 3 to polarization responses of the inhibitor vs KRIT1 concentration […]
even after 7 hours of incubation. For practical purposes, we have chosen 4 hours as our standard incubation time since it appeared that most of the inhibition has been reached at this time point. The kinetic characterization of HNA as a HEG1- KRIT1 inhibitor will be discussed in greater detail in the kinetic section […]
values to those obtained from the flow cytometry assay. Finally, to assess the robustness of the FP assay, […]
a robust assay) representing an excellent assay with clear differences between positive and negative controls.2 Evaluation of HEG1-KRIT1 inhibitors prior to the optimization of the FP assay were done using flow cytometry, while subsequent compounds were evaluated using the FP assay. All subsequent assay plates included HNA as comparison and control.
Figure S1. Optimization of fluorescence polarization (FP) assay.
HEG1-KRIT1 inhibition. (B) Optimization of KRIT1 protein and Cy5 -HEG1 probe concentrations. Dose-response curve of HNA obtained via fluorescence polarization (C) and flow cytometry (D) assays show […]
All assays were tested in technical duplicates or triplicates in at least 2 different

SMILES	IC50
O=Cc1c(O)ccc2cc(Cl)ccc12 [Compound 8]	1.83 ± 0.82 µM
CN(C)c1ccc2c(C=O)c(O)ccc2c1 [Compound 11]	12.1 ± 4.61 µM
CC#Cc1ccc2c(C=O)c(O)ccc2c1 [Compound 12]	1.42 ± 0.32 µM
O=Cc1c(O)ccc2cc(-c3c[nH]nn3)ccc12 [Compound 14]	12 ± 1.09 µM
O=Cc1c(O)ccc2cc(-c3ccccc3)ccc12 [Compound 13]	0.79 ± 0.24 µM
COc1ccc2c(C=O)c(O)ccc2c1 [Compound 2, 2-hydroxy-6-methoxy-1-naphthaldehyde]	3.96 ± 0.84 µM
C=CCc1ccc2c(C=O)c(O)ccc2c1 [Compound 7]	1.22 ± 0.43 µM

Same assay, conditions: global fit across six or more inhibitor concentrations; means ± SD, n = 3

SMILES	HEG1-KRIT1 PPI Assay kon	koff
O=Cc1c(O)ccc2cc(Cl)ccc12 [Compound 8]	35.6 ± 5 M⁻¹ s⁻¹	2.97e-05 s⁻¹
CN(C)c1ccc2c(C=O)c(O)ccc2c1 [Compound 11]	9.64 M⁻¹ s⁻¹ and 9.64 ± 2.08 M⁻¹ s⁻¹	0.00011 s⁻¹
CC#Cc1ccc2c(C=O)c(O)ccc2c1 [Compound 12]	43.1 ± 5.83 M⁻¹ s⁻¹	4.36e-05 s⁻¹
O=Cc1c(O)ccc2cc(-c3c[nH]nn3)ccc12 [Compound 14]	4.58 M⁻¹ s⁻¹ and 4.58 ± 0.444 M⁻¹ s⁻¹	1.99e-05 s⁻¹
O=Cc1c(O)ccc2cc(-c3ccccc3)ccc12 [Compound 13]	112 ± 23.9 M⁻¹ s⁻¹	7.28e-05 s⁻¹
COc1ccc2c(C=O)c(O)ccc2c1 [Compound 2, 2-hydroxy-6-methoxy-1-naphthaldehyde]	14 M⁻¹ s⁻¹ and 14 ± 0.83 M⁻¹ s⁻¹	1.54e-05 s⁻¹
C=CCc1ccc2c(C=O)c(O)ccc2c1 [Compound 7]	50.8 ± 5 M⁻¹ s⁻¹	3.19e-05 s⁻¹

Same assay, conditions: global fit; means ± SD, n = 3; unit in Figure 2E; read-out: HEG1-KRIT1 PPI Assay Ki (koff/kon)

SMILES	Ki
O=Cc1c(O)ccc2cc(Cl)ccc12 [Compound 8]	0.84 ± 0.33 µM
CN(C)c1ccc2c(C=O)c(O)ccc2c1 [Compound 11]	11.4 ± 4.08 µM
CC#Cc1ccc2c(C=O)c(O)ccc2c1 [Compound 12]	1.01 ± 0.29 µM
O=Cc1c(O)ccc2cc(-c3c[nH]nn3)ccc12 [Compound 14]	4.35 ± 1.77 µM
O=Cc1c(O)ccc2cc(-c3ccccc3)ccc12 [Compound 13]	0.65 ± 0.24 µM
COc1ccc2c(C=O)c(O)ccc2c1 [Compound 2, 2-hydroxy-6-methoxy-1-naphthaldehyde]	1.1 ± 0.32 µM
C=CCc1ccc2c(C=O)c(O)ccc2c1 [Compound 7]	0.63 ± 0.16 µM

Tested on: KLF4
Assay: KLF4 gene expression in HUVECs (RT-qPCR)
Format: cell-based, Human
Settings: HUVEC, 4-h incubation, relative to inactive control (2-hydroxy-1-naphthoic acid), 10-50 µM
Procedure: as §1, §2, §3, §4, §5, §6, §7

SMILES	KLF4 mRNA expression
COc1ccc2c(C=O)c(O)ccc2c1 [Compound 2, 2-hydroxy-6-methoxy-1-naphthaldehyde]	increased KLF2 and KLF4 expression without reaching statistical significance

Tested on: KLF2
Assay: not given
Set-up: method as in PMID 33977234
Settings: HUVECs, 24 h of incubation; cited from earlier work

SMILES	KLF2 expression
COc1ccc2c(C=O)c(O)ccc2c1 [Compound 2, 2-hydroxy-6-methoxy-1-naphthaldehyde]	upregulation

Tested on: not listed separately
Assay: pKa by potentiometric titration (Sirius T3)
Format: physicochemical
Settings: potentiometric titrations, means ± SD of three titrations

SMILES	pKa
O=Cc1c(O)ccc2cc(Cl)ccc12 [Compound 8]	7.3 ± 0.06
CC#Cc1ccc2c(C=O)c(O)ccc2c1 [Compound 12]	7.02 ± 0.08
O=Cc1c(O)ccc2cc(-c3c[nH]nn3)ccc12 [Compound 14]	7.38 ± 0.12
O=Cc1c(O)ccc2cc(-c3ccccc3)ccc12 [Compound 13]	6.76 ± 0.1
COc1ccc2c(C=O)c(O)ccc2c1 [Compound 2, 2-hydroxy-6-methoxy-1-naphthaldehyde]	7.42 ± 0.03
C=CCc1ccc2c(C=O)c(O)ccc2c1 [Compound 7]	7.17 ± 0.09
